Experiment: Analysis of solubility of L-tryptophan depending on pH of solution
Assay type: physicochemical
Conditions: distilled water/ammonia water mixtures, 30° C., stirring 12 hours or more, supernatant by HPLC; pH of the solution 10 or more (FIG. 2)
Description: Measurement of solubility of L-tryptophan amino acids was performed in a 1 L jacket reactor made of glass. After mixing distilled water and ammonia water in the 1 L jacket reactor at various ratios, an excess of L-tryptophan crystals was added and they were stirred, thereby preparing a reaction solution comprising L-tryptophan crystals. After that, while maintaining the internal temperature of the reactor at 30° C. constantly using freezing/heating circulation apparatus (model F35, Julabo, Germany), these conditions were applied with stirring for 12 hours or more. Then, when the stirring was stopped and all L-tryptophan crystals were sunk, a part of clear supernatant was transferred to a syringe sampler equipped with a 0.45 μm syringe filter. At this time, the pH of the corresponding solution was measured suing a pH measuring instrument (model S220, Mettler Toledo, US). The concentration of the corresponding sample was measured using HPLC, after diluting with tertiary distilled water using a volumetric flask. The concentration of the supernatant sample was assumed with the solubility, and the change in solubility of L-tryptophan depending on pH of solution was shown in FIG. 2. In other words, the pH of the solution could be confirmed that the solubility of L-tryptophan increased from the time when the pH of the solution was to be 10 or more.

- change in solubility of L-tryptophan depending on pH of solution: increased
SMILES: N[C@@H](Cc1c[nH]c2ccccc12)C(=O)O [L-tryptophan]
